Test results published in US20250152585A1, “PHARMACEUTICAL COMPOUND” (Duke Street Bio Limited, priority 2022, published 2025).
Where two headings read alike, the source gives them in different places.

What was measured:
[1] = target: T1, full length N-terminally FLAG-tagged PARP1 (Homo sapiens, UniProt P09874); assay: PARP1 probe displacement HTRF assay; conditions: for Kd: binned Kd; for Selectivity: PARP1 over PARP2, ratio Kd (PARP2)/Kd (PARP1)
[2] = target: T1, full length N-terminally FLAG-tagged PARP1; assay: PARP1 biochemical DELFIA assay (auto-PARylation); parameters: recombinant full length human N-terminally FLAG-tagged PARP1
[3] = target: T2, N-terminally FLAG-tagged PARP2 (amino acids 1-583) (Homo sapiens, UniProt Q9UGN5); assay: PARP2 probe displacement HTRF assay; format: binding; conditions: binned Kd
T2 construct: N-terminally FLAG-tagged PARP2 (amino acids 1-583)
T2 sequence (Q9UGN5 whole entry, the tested form may be a part): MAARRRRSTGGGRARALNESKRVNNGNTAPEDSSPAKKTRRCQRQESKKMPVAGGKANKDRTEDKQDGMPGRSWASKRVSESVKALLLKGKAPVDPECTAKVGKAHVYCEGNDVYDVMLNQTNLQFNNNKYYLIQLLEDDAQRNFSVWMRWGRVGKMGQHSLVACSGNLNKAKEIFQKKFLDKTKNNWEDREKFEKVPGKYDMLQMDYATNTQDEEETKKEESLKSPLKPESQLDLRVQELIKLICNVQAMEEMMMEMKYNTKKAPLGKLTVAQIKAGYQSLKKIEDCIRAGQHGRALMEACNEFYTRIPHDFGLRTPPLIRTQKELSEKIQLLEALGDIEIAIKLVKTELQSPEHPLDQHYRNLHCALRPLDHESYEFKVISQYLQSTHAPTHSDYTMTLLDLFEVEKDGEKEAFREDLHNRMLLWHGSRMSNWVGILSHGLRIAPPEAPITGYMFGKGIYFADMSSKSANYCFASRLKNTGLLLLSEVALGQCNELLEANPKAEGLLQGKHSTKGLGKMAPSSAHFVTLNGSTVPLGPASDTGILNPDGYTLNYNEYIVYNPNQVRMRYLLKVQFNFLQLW
Description: Data analysis was performed identical as for PARP1.

[4] = PARP1 HTRF, PARP1 probe displacement HTRF
[5] = binned IC50, PARP1 biochemical DELFIA assay
[6] = read-out: PARP1 HTRF, PARP1 probe displacement HTRF
[7] = read-out: PARP1 HTRF, probe displacement HTRF
[8] = binned IC50, biochemical auto-PARylation assay

T1 sequence (P09874 whole entry): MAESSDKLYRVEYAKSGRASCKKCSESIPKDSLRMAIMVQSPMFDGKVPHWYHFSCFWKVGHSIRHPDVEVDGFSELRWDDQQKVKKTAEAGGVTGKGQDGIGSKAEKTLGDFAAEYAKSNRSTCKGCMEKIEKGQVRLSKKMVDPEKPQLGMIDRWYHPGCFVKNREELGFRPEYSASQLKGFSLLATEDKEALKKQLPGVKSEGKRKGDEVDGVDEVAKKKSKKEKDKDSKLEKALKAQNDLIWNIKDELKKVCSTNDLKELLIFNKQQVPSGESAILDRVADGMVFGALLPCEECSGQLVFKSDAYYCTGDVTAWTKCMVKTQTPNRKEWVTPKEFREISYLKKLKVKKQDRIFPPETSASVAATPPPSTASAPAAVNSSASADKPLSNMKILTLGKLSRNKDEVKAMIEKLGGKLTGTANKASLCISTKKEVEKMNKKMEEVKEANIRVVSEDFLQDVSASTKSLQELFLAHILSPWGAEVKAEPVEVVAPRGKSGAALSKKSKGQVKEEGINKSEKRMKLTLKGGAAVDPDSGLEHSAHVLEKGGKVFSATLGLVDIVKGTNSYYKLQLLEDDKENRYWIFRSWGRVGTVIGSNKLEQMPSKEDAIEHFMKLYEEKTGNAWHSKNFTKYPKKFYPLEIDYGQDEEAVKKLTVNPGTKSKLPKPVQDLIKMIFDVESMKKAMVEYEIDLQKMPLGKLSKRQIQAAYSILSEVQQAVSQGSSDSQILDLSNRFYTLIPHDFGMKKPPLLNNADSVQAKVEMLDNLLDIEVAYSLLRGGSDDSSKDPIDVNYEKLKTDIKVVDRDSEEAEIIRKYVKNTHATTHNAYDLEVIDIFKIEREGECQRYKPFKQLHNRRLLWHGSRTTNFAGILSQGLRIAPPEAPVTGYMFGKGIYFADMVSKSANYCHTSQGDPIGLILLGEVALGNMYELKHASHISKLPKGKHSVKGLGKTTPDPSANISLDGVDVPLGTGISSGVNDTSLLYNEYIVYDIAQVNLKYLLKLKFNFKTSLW

Row | Kd [1, 4] | IC50 [2, 5] | Kd ([3]; PARP2 probe displacement HTRF) | Kd [1, 6] | Kd [1, 7] | IC50 [2, 8] | Kd ([3]; probe displacement HTRF) | Kd ([1]; PARP1 HTRF, probe displacement HTRF) | SMILES | Selectivity ([1]; probe displacement HTRF)
1 | < 10 nM | < 10 nM | 10 to 100 nM |  |  |  |  |  | CNC(=O)c1ccc(N2CCC(N3CCC(c4nc5[nH]nc(C(F)(F)F)c5c(=O)[nH]4)C3)CC2)cn1 (single isomer, unassigned) [Compound 162b, N-methyl-5-(4-(3-(4-oxo-3-(trifluoromethyl)-4,5-dihydro-1H-pyrazolo[3,4-d]pyrimidin-6-yl)pyrrolidin-1-yl)piperidin-1-yl)picolinamide] | ++ (++ indicates a value of 50 to less than 100)
2 |  | 100 to 1000 nM | > 10000 nM | 10 to 100 nM |  |  |  |  | CNC(=O)c1ccc(N2CCC(N3CCC(c4nc5ncccc5c(=O)[nH]4)C3)CC2)cn1 (single isomer, unassigned) [Compound 60b] | ++ (++ indicates a value of 50 to less than 100)
3 |  |  |  |  | > 10000 nM | > 10000 nM | > 10000 nM |  | CNC(=O)c1ccc(N2CCC(N3CCC(c4nc5c(C(F)(F)F)c[nH]c5c(=O)[nH]4)C3)CC2)cn1 (single isomer, unassigned) [Compound 293a] | − (− indicates a value of less than 10)
4 |  | < 10 nM | > 10000 nM | < 10 nM |  |  |  |  | CNC(=O)c1ccc(N2CCC(N3CCC(c4nc5ncccc5c(=O)[nH]4)C3)CC2)cn1 (single isomer, unassigned) [Compound 60a] | +++ (+++ indicate a value of at least 100)
5 |  |  |  |  | 100 to 1000 nM | 100 to 1000 nM | > 10000 nM |  | CNC(=O)c1ccc(N2CCC(N3CCC(c4cnc(C(F)(F)F)c(=O)[nH]4)C3)CC2)cn1 (single isomer, unassigned) [Compound 279a] | + (+ indicates a value of 10 to less than 50)
6 |  | 100 to 1000 nM | > 10000 nM | 100 to 1000 nM |  |  |  |  | CNC(=O)c1ccc(N2CCC(N3CCC(c4nc5ccc(C(F)(F)F)cc5c(=O)[nH]4)C3)CC2)cn1 (single isomer, unassigned) [Compound 161a] | − (− indicates a value of less than 10)
7 |  |  |  |  | < 10 nM | < 10 nM | 10 to 100 nM |  | CNC(=O)c1ccc(N2CCC(N3CCC(c4nc5sc(C)c(C)c5c(=O)[nH]4)C3)CC2)cn1 (single isomer, unassigned) [Compound 221b] | ++ (++ indicates a value of 50 to less than 100)
8 |  | < 10 nM | 100 to 1000 nM | < 10 nM |  |  |  |  | CNC(=O)c1ccc(N2CCC(N3CCC(c4nc5c(F)cccc5c(=O)[nH]4)C3)CC2)cn1 (single isomer, unassigned) [Compound 121b] | +++ (+++ indicate a value of at least 100)
9 |  |  |  |  | 10 to 100 nM | 10 to 100 nM | 1000 to 10000 nM |  | CC(=O)Nc1ccc(N2CCC(N3CCC(c4nc5ccccc5c(=O)[nH]4)C3)CC2)cn1 (single isomer, unassigned) [Compound 220b] | + (+ indicates a value of 10 to less than 50)
10 |  | 100 to 1000 nM | > 10000 nM | 100 to 1000 nM |  |  |  |  | CNC(=O)c1ccc(N2CCC(N3CCCC(c4nc5cc(F)ccc5c(=O)[nH]4)C3)CC2)cn1 (single isomer, unassigned) [Compound 108a] | − (− indicates a value of less than 10)
11 |  | 10 to 100 nM | 100 to 1000 nM | 10 to 100 nM |  |  |  |  | CNC(=O)c1ccc(N2CCC(N3CCC(c4nc5cccc(C(F)(F)F)c5c(=O)[nH]4)C3)CC2)cn1 (single isomer, unassigned) [Compound 86a] | + (+ indicates a value of 10 to less than 50)

Second part, the compound before the results:

Row | SMILES | Kd [1, 4] | IC50 [2, 5] | Kd ([3]; PARP2 probe displacement HTRF) | Kd [1, 6] | Kd [1, 7] | IC50 [2, 8] | Kd ([3]; probe displacement HTRF) | Kd ([1]; PARP1 HTRF, probe displacement HTRF) | Selectivity ([1]; probe displacement HTRF)
12 | CCc1ccc(C2CCN(C3CCN(c4ccc(C#N)cc4)CC3)C2)[nH]c1=O (single isomer, unassigned) [Compound 317b] |  |  |  |  | < 10 nM | < 10 nM | 100 to 1000 nM |  | +++ (+++ indicate a value of at least 100)
13 | N#Cc1nc(C(=O)NC2CC2)ccc1N1CCC(N2CC3(c4nc5ccc(F)cc5c(=O)[nH]4)CC2C3)CC1 [Compound 388] |  |  |  |  |  | < 10 nM | 100 to 1000 nM | < 10 nM | +++ (+++ indicate a value of at least 100)
14 | CNC(=O)c1ccc(N2CCC(N3CCC(c4cc5[nH]nc(C(F)(F)F)c5c(=O)[nH]4)C3)CC2)c(F)n1 (single isomer, unassigned) [Compound 280a] |  |  |  |  | 10 to 100 nM | 10 to 100 nM | 1000 to 10000 nM |  | ++ (++ indicates a value of 50 to less than 100)
15 | CNC(=O)c1cc(C)c(N2CCC(N3CCC(c4cc5ccccc5c(=O)[nH]4)C3)CC2)cn1 (racemic) [Compound 195rac] |  | < 10 nM | 100 to 1000 nM | < 10 nM |  |  |  |  | +++ (+++ indicate a value of at least 100)
16 | CC(=O)Nc1ccc(N2CCC(N3CCC(c4nc5ccccc5c(=O)[nH]4)C3)CC2)cn1 (single isomer, unassigned) [Compound 262a] |  |  |  |  | 1000 to 10000 nM | 100 to 1000 nM | 1000 to 10000 nM |  | − (− indicates a value of less than 10)
17 | CNC(=O)c1cnc(N2CCC(N3CCCC(c4nc5ccccc5c(=O)[nH]4)C3)CC2)cn1 (single isomer, unassigned) [Compound 99a] |  | 1000 to 10000 nM | > 10000 nM | 1000 to 10000 nM |  |  |  |  | − (− indicates a value of less than 10)
18 | CNC(=O)c1ccc(N2CCC(N3CCCC(c4ccc(OC)c(=O)[nH]4)C3)CC2)cn1 (single isomer, unassigned) [Compound 147a] |  | 1000 to 10000 nM | > 10000 nM | 1000 to 10000 nM |  |  |  |  | − (− indicates a value of less than 10)
19 | CNC(=O)c1ccc(N2CCC(N3CC4CC(c5nc6ccccc6c(=O)[nH]5)(C4)C3)CC2)cn1 [Compound 168] | < 10 nM | < 10 nM | > 10000 nM |  |  |  |  |  | +++ (+++ indicate a value of at least 100)
20 | CNC(=O)c1ccc(N2CCC(CN3CCC(c4nc5ccccc5c(=O)[nH]4)CC3)C2)cn1 (single isomer, unassigned) [Compound 50a] |  | 10 to 100 nM | 1000 to 10000 nM | 10 to 100 nM |  |  |  |  | + (+ indicates a value of 10 to less than 50)
21 | CCc1ccc(C2CCN(C3CCN(c4ccc(C(=O)NCCF)nc4F)CC3)C2)[nH]c1=O (single isomer, unassigned) [Compound 322a] |  |  |  |  | < 10 nM | < 10 nM | > 10000 nM |  | +++ (+++ indicate a value of at least 100)
22 | CNC(=O)c1ccc(N2CCC(N3CCC(Cc4nc5ccccc5c(=O)[nH]4)CC3)CC2)cn1 [Compound 54, N-methyl-5-(4-{4-[(4-oxo-3H-quinazolin-2-yl)methyl]piperidin-1-yl}piperidin-1-yl)pyridine-2-carboxamide] | < 10 nM | < 10 nM | 100 to 1000 nM |  |  |  |  |  | +++ (+++ indicate a value of at least 100)
23 | CNC(=O)c1ccc(N2CCC(N3CCC(c4cc5[nH]nc(C(F)(F)F)c5c(=O)[nH]4)C3)CC2)c(F)n1 (single isomer, unassigned) [Compound 280b] |  |  |  |  | < 10 nM | < 10 nM | 10 to 100 nM |  | ++ (++ indicates a value of 50 to less than 100)
24 | CNC(=O)c1ccc(N2CCC(N3CCC(c4ccc(CC5CC5)c(=O)[nH]4)C3)CC2)c(F)n1 (single isomer, unassigned) [Compound 313a] |  |  |  |  | 10 to 100 nM | 10 to 100 nM | > 10000 nM |  | +++ (+++ indicate a value of at least 100)
25 | CCNC(=O)c1ccc(N2CCC(N3CCC(c4ccc(CC)c(=O)[nH]4)C3)CC2)cn1 (racemic) [Compound 171rac] |  | < 10 nM | 100 to 1000 nM | < 10 nM |  |  |  |  | +++ (+++ indicate a value of at least 100)
26 | CNC(=O)c1ccc(N2CCC(N3CCC(c4ccc(CC5CC5)c(=O)[nH]4)C3)CC2)cn1 (single isomer, unassigned) [Compound 213a] |  | 10 to 100 nM | > 10000 nM | 10 to 100 nM |  |  |  |  | +++ (+++ indicate a value of at least 100)
27 | CC(=O)Nc1ccc(N2CCC(N3CCC(c4cc5ccccc5c(=O)[nH]4)C3)CC2)cn1 (single isomer, unassigned) [Compound 306b] |  |  |  |  | < 10 nM | < 10 nM | 100 to 1000 nM |  | +++ (+++ indicate a value of at least 100)
28 | CCc1ccc(C2CCN(C3CCN(c4ccc(C(=O)NC)nc4Cl)CC3)C2)[nH]c1=O (single isomer, unassigned) [Compound 239a] |  |  |  |  | < 10 nM | < 10 nM | > 10000 nM |  | +++ (+++ indicate a value of at least 100)
29 | O=c1[nH]c(C2CCN(C3CCN(c4ccc(F)cc4F)CC3)C2)nc2ccccc12 (single isomer, unassigned) [Compound 107b] |  | 100 to 1000 nM | 100 to 1000 nM | 100 to 1000 nM |  |  |  |  | − (− indicates a value of less than 10)
30 | CNC(=O)c1ccc(N2CCC(N3CCC(c4[nH]c(=O)c5c(F)cccc5c4F)C3)CC2)c(F)n1 (single isomer, unassigned) [Compound 402a] |  |  |  |  | < 10 nM | < 10 nM | 100 to 1000 nM |  | +++ (+++ indicate a value of at least 100)
31 | O=c1[nH]c(C2CCN(C3CCN(c4ccc(OC(F)F)nc4)CC3)C2)cc2ccc(F)cc12 (single isomer, unassigned) [Compound 374a] |  |  |  |  | 10 to 100 nM | 10 to 100 nM | 100 to 1000 nM |  | + (+ indicates a value of 10 to less than 50)
